Measured values reported in paper PMC4774911, “Biochemical Screening of Five Protein Kinases from Plasmodium falciparum against 14,000 Cell-Active Compounds” (PLoS ONE, 2016).
Several values for one entry are separate records, joined by “and”; a condition that tells them apart may be missing. Equal values may be shown once.

Legend:
Test in all cases: biochemical
MERTK = target: T1, MERTK (Homo sapiens, UniProt Q12866)
T1 sequence (Q12866 1-999): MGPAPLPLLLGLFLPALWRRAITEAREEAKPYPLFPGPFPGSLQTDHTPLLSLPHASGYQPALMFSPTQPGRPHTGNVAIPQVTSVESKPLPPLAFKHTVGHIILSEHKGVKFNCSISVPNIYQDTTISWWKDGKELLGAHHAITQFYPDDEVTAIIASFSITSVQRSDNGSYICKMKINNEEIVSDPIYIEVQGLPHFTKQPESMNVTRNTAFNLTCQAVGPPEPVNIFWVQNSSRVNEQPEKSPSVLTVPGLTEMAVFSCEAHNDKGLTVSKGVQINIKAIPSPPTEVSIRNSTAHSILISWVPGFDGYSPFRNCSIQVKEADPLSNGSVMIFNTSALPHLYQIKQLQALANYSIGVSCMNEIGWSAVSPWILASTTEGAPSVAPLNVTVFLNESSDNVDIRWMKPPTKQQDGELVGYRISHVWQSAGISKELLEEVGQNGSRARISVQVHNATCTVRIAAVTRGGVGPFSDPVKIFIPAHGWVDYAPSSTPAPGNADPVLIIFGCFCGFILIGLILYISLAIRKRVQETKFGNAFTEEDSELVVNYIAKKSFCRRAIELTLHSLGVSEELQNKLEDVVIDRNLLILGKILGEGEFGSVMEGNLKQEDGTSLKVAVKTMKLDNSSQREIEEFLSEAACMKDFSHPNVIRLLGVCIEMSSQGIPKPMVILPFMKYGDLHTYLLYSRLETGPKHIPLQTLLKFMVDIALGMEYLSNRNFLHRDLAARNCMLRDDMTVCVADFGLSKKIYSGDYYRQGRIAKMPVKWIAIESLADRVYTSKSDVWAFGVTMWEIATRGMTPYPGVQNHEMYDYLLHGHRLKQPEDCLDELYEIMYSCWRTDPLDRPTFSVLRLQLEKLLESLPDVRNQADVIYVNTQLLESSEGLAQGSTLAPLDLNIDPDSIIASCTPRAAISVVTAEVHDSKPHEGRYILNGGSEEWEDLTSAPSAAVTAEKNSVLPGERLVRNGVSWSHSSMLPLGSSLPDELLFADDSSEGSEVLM

MAP2K4 = target: T2, MAP2K4 (Homo sapiens, UniProt P45985)
T2 sequence (P45985 1-399): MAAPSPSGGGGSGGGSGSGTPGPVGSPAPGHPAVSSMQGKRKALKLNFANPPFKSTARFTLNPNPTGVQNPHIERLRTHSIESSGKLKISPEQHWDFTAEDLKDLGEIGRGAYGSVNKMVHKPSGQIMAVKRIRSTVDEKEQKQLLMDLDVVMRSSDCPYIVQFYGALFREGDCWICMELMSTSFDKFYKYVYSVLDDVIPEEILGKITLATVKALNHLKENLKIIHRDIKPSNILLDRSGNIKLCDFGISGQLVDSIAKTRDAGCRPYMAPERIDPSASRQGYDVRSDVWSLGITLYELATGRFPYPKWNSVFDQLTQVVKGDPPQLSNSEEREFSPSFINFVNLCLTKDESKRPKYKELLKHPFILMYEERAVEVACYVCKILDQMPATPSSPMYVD

ACVR1B = target: T3, ACVR1B (Homo sapiens, UniProt P36896)
T3 sequence (P36896 1-505): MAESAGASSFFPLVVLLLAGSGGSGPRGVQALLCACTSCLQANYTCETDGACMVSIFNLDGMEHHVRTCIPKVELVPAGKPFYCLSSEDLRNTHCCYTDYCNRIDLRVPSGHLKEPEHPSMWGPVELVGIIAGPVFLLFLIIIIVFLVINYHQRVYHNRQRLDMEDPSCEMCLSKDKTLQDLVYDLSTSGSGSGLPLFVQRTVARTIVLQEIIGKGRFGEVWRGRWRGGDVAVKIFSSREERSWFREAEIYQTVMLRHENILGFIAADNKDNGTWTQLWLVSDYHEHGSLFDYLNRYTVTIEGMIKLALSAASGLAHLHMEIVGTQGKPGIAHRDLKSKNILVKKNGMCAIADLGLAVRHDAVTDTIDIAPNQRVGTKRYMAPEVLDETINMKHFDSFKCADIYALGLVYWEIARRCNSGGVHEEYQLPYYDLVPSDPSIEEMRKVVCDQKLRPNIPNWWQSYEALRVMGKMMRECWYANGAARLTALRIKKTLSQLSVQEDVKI

MARK3 = MARK3 (Homo sapiens, UniProt P27448)
MELK = MELK (Homo sapiens, UniProt Q14680)
IRAK4 = target: T4, IRAK4 (Homo sapiens, UniProt Q9NWZ3)
T4 sequence (Q9NWZ3 1-460): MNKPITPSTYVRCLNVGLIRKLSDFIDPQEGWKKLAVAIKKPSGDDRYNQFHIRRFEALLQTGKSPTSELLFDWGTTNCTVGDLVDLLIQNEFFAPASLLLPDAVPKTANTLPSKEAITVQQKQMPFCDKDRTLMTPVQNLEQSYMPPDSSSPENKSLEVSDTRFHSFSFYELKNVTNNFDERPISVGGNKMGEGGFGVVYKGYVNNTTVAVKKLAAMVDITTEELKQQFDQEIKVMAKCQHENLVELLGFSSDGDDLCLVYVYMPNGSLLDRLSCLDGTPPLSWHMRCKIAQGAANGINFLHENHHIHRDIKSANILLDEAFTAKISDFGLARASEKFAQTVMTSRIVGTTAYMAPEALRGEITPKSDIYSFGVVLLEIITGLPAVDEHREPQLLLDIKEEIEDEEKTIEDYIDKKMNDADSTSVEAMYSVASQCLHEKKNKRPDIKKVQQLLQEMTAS

PRKACB = PRKACB (Homo sapiens, UniProt P22694)
AURKB = AURKB (Homo sapiens, UniProt Q96GD4)
MAPK1 = MAPK1 (Homo sapiens, UniProt P28482)
MAP3K4 = MAP3K4 (Homo sapiens, UniProt Q9Y6R4)
MAP3K4, sequence (Q9Y6R4 whole entry): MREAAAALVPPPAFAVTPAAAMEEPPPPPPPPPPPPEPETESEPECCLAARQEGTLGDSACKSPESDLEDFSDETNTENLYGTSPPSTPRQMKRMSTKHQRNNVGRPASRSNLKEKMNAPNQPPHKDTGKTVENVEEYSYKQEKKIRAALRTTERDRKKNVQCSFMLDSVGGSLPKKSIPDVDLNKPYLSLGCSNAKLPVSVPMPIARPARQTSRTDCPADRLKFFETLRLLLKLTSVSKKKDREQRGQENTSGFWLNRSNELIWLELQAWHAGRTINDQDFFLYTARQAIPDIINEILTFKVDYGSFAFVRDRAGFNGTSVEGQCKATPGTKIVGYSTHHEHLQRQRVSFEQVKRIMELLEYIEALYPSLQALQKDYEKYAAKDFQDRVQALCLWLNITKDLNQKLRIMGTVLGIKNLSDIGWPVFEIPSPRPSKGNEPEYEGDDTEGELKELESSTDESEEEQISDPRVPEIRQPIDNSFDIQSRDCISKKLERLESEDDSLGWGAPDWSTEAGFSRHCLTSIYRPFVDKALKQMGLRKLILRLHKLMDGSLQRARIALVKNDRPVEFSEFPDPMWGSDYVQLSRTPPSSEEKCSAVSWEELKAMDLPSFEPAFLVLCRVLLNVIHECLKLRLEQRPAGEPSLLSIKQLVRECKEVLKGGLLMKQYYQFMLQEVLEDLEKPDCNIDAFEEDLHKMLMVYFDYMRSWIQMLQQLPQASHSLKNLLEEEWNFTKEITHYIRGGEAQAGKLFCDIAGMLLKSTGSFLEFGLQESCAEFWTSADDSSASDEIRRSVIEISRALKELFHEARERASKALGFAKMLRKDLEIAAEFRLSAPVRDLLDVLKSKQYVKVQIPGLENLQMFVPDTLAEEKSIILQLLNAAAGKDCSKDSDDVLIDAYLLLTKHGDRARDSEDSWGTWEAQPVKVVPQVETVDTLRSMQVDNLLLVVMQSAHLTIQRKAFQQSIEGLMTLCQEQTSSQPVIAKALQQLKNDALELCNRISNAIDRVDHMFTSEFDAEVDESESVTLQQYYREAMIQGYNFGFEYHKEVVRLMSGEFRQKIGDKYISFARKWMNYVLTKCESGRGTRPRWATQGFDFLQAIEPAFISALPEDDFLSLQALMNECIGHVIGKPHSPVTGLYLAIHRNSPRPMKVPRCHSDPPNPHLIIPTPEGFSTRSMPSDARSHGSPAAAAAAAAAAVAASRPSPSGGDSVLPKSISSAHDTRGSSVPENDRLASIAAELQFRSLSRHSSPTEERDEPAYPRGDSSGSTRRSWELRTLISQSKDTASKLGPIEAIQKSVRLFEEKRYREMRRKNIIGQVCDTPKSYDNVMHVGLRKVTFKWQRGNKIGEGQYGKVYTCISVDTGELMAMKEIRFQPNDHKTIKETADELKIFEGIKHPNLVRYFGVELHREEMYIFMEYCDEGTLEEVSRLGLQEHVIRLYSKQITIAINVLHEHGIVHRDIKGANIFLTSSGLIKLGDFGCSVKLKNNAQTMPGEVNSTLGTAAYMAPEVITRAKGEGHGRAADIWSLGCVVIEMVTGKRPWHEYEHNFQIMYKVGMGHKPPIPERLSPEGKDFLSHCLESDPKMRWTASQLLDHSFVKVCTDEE

MAPK1, sequence (P28482 whole entry): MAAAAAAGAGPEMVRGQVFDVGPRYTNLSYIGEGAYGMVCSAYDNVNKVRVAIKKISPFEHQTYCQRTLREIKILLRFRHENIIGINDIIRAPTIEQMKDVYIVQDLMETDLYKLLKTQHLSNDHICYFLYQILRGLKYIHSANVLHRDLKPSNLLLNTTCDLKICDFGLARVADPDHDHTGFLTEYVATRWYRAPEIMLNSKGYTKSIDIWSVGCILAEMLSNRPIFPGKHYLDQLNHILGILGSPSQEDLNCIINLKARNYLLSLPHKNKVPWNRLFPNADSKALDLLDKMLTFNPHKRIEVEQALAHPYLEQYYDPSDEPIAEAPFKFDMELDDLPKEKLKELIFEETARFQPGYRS
AURKB, sequence (Q96GD4 whole entry): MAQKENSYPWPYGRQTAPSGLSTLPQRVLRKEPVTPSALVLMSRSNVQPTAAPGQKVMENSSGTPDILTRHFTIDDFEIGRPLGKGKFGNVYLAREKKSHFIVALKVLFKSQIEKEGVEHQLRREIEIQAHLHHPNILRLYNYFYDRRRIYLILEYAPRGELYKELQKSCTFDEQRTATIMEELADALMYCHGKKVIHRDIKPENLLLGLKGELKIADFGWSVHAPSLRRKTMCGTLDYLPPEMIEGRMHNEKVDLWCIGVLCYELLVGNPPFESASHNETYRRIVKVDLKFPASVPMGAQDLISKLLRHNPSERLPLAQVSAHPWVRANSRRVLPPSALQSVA
MARK3, sequence (P27448 whole entry): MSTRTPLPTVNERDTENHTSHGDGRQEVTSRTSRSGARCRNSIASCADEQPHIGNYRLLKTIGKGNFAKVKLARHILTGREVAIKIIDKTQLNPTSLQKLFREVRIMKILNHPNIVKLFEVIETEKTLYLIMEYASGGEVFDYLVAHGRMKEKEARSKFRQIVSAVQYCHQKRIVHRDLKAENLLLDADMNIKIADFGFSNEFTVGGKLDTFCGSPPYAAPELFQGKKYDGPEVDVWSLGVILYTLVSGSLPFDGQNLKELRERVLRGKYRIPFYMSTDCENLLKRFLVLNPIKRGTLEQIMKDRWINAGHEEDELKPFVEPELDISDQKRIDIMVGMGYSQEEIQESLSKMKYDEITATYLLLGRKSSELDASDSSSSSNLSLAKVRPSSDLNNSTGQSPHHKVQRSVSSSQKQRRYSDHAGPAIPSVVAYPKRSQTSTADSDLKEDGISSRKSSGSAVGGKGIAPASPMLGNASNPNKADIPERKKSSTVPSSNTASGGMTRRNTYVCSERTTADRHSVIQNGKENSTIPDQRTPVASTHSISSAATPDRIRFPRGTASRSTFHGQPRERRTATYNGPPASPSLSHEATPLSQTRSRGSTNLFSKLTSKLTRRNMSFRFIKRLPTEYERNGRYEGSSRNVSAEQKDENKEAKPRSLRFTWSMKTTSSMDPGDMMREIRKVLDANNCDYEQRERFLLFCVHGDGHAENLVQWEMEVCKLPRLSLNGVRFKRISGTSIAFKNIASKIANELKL
MELK, sequence (Q14680 whole entry): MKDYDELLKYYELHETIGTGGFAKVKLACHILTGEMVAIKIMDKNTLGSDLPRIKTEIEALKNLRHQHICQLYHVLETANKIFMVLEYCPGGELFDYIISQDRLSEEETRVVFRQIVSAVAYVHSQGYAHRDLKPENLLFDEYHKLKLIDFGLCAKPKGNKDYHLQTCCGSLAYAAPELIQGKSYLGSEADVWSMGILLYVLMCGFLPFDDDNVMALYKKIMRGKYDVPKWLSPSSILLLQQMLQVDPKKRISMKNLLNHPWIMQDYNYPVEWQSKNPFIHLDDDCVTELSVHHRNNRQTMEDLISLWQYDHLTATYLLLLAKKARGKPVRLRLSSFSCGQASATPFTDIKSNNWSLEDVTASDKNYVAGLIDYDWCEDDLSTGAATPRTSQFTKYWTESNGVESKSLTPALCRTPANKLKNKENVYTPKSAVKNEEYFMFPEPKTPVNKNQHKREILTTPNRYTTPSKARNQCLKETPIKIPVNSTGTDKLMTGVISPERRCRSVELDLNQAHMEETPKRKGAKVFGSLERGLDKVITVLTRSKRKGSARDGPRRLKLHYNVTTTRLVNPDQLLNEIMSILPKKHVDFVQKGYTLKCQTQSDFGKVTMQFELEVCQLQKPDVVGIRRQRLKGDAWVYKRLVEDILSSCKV

SMILES | IC50 (MERTK) | IC50 (MAP2K4) | IC50 (ACVR1B) | IC50 (MARK3) | IC50 (MELK) | IC50 (IRAK4) | IC50 (PRKACB) | IC50 (AURKB) | IC50 (MAPK1) | IC50 (MAP3K4)
CN(C)CC(O)COc1ccc(Nc2ncc([N+](=O)[O-])c(Nc3ccccc3O)n2)cc1.O=C(O)C(F)(F)F (stereo not drawn) [TCMDC-141399] | 1.1 µM | > 20 µM | > 20 µM | 10 µM and 6.6 µM | > 20 µM | > 20 µM | > 20 µM | 4.2 µM | > 20 µM | 0.84 µM
Cl.NCC1(c2nc(-c3ccc(Cl)c(O)c3)c(-c3ccncc3)[nH]2)CCCCC1 [TCMDC-141154] | 9.3 µM | > 20 µM | 0.59 µM | > 20 µM | 4.7 µM and 4.5 µM | > 20 µM | 0.89 µM | > 20 µM | > 20 µM | > 20 µM
CN1CCN(c2ccc(Nc3ncc(C#N)c(Nc4ccccc4C(N)=O)n3)cc2)CC1.Cl [TCMDC-134116] | 0.63 µM | > 20 µM | 4 µM | 0.12 µM and 0.14 µM | 0.36 µM and 0.35 µM | 0.17 µM | 6.3 µM | 0.04 µM and 0.064 µM | > 20 µM | 0.039 µM and 0.051 µM
